The values that follow are results of earlier work, collected in patent US7786168B2, “Phenolic acid salts of gabapentin in solid dosage forms and methods of use” (Kiel Laboratories, Inc., priority 2003, dated 2010).

For data set [1], the target named is gb1a-gb^2 heterodimer and post-synaptic GABAB receptor (Homo sapiens, UniProt Q9UBS5).
The conditions of data set [2]: in water and across a wide range of pH.
Data set [3] concerns plasma proteins.

Sequence of gb1a-gb^2 heterodimer and post-synaptic GABAB receptor (Q9UBS5 15-961 limits assumed): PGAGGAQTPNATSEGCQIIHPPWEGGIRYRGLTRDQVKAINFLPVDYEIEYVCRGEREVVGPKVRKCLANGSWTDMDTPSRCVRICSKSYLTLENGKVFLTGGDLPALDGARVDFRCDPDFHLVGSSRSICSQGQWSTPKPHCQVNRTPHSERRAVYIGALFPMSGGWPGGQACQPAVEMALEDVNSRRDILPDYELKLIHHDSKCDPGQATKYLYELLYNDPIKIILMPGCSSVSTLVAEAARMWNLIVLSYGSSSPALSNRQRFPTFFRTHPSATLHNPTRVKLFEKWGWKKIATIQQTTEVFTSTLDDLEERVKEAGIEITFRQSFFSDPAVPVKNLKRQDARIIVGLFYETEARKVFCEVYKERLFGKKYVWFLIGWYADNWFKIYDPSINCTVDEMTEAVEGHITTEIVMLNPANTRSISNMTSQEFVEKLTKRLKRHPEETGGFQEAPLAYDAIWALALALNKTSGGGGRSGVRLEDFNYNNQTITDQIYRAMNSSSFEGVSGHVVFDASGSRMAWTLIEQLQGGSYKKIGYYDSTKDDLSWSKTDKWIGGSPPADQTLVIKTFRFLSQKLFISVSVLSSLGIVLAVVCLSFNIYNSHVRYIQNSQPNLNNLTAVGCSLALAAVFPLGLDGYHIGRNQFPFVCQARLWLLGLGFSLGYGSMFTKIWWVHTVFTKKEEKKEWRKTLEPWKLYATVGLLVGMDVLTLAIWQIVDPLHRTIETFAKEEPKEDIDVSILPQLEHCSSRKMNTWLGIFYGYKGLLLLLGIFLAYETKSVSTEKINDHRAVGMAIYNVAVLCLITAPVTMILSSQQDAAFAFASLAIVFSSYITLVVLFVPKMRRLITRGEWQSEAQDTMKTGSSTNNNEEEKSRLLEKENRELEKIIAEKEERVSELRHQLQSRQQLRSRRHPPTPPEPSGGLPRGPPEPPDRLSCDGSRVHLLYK
Sequence of gb1a-gb^2 heterodimer and post-synaptic GABAB receptor (O75899 42-941 partner): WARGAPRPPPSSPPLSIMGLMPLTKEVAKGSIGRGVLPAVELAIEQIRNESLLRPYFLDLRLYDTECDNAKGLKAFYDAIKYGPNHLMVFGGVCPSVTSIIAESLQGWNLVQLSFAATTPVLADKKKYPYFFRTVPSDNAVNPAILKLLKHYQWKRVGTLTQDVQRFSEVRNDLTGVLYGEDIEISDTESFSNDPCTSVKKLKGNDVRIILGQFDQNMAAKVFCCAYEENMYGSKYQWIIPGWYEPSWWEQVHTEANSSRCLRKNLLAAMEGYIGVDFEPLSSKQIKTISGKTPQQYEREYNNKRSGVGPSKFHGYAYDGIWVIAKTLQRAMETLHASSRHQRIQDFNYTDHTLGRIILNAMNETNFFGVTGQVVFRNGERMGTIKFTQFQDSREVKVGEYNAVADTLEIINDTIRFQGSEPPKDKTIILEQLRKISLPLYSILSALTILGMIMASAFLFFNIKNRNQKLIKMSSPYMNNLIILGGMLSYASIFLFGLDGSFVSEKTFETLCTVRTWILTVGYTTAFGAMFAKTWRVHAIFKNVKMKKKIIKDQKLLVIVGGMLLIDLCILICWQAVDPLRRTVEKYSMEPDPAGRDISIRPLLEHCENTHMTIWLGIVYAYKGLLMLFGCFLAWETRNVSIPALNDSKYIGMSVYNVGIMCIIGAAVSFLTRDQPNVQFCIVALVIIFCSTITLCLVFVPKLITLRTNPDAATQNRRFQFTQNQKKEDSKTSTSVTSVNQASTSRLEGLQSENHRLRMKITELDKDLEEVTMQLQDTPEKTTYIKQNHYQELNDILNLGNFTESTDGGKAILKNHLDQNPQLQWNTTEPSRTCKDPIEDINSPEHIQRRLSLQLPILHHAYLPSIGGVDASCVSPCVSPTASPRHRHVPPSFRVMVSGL

For `NCC1(CC(=O)O)CCCCC1` [gabapentin, 1-(aminomethyl) cyclohexaneacetic acid], the agonist activity result in data set [1] was “selective agonist”. Besides, in data set [2], the solubility result is listed as “freely soluble”. Besides, the plasma protein binding result in data set [3] is on record as “does not bind to plasma proteins”. The “time of peak plasma gabapentin concentrations” value (adults, post-dose) was 2 to 3 h. Under “after administration of 300 mg, dose-dependent”, the absolute bioavailability entry is reported as “approximately 60%”. Moreover, for the setting “in vivo”, the metabolism result is recorded as “not metabolized” and the route of elimination entry is “eliminated via glomerular filtration”. For the same compound, the “crossing of the blood-brain barrier” value (unlike GABA) is on record as “able to cross the blood-brain barrier”.
